One may read the inhibition as the share of the control response that was lost under treatment.

Assay [1] has as its system Puccinia recondita, tritici. In words: In vivo fungicidal activity, Wheat Leaf Rust (WLR). Particulars: rate 400 ppm, rating, averaged. The method, then: (§1) Test compounds are dissolved in acetone and diluted with deionized water containing about 0.05% TWEEN 20®, a polyoxyethylene sorbitan monolaurate surfactant manufactured by Atlas Chemical Industries, to give a concentration of 400 ppm. Subsequent dilutions are made with an 0.05% aqueous solution of TWEEN 20®.
(§2) Host plants are sprayed with test solution, dried and inoculated with fungi. When disease symptom development is optimal, the plants are rated for disease control according to the rating scale shown below. Each test contains inoculated treated plants, inoculated untreated plants and a reference standard.
(§3) When more than one test is run, the data are averaged.

Assay [2] concerns Heliothis virescens, 3rd instar tobacco budworm. Kind of assay: Tobacco budworm 3rd instar test, dipped cotton cotyledons. The note with it: mortality rating after 3 days. The assay is classed as in vivo. Also noted: key: 0: no effect; 10-25% kill; 26-35% kill; 36-45% kill; 46-55% kill; 56-65% kill; 66-75% kill; 76-85% kill; 86-99% kill; 9: 100% kill. In outline: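 Cotton cotyledons dipped in compound solution (10,000 ppm stock in 35% aqueous acetone, water dilutions), dried and quartered. One caterpillar per section, ten sections per treatment. After 3 days, mortality and feeding-damage reduction scored on a rating scale.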

Assay [3] has as its system Cercospora beticola. Kind of assay: In vivo fungicidal activity, Sugarbeet Cercospora (SBC). The note with it: rating, averaged. As to the method:
as §1, §2, §3

Assay [4] has as its system Venturia inaequalis. Kind of assay: In vivo fungicidal activity, Apple Scab (AS). The note with it: rate 400 ppm, host plants sprayed then inoculated, rating, averaged. The method, then:
as §1, §2, §3

The test system of assay [5] is Pythium ultimum. Kind of assay: In vitro fungicidal activity, mycelial growth inhibition on agar (Pyth). The note with it: Globisporangium ultimum, 48 h, two days. The assay is classed as cell-based. The method, then:
(§4) Test compounds are dissolved in acetone, diluted with sterile, deionized water and mixed with a partially cooled, autoclaved, chemically defined agar medium. This mixture is poured into several 100mm x 15mm sterile plastic plates and allowed to solidify. The surface of each plate is inoculated with a single disc of mycelium and agar cut with an 8mm diameter cork borer from actively growing cultures of assay fungi on a chemically defined agar medium. The plates are incubated at room temperature. Growth inhibition is determined when the mycelial growth on unamended control media has reached the edge of the petri plates. The time interval varies depending on the growth rate of the fungus; two days for Pythium ultimum (pyth) and Rhizoctonia solani (Rhiz) , five days for Botrytis cinerea (Betry) and 7-10 days for Pseudocercosporella herpotrichoides (Pseudo). Each colony diameter is measured and compared with the untreated control and the percent inhibition is calculated as follows: [formula] Each test includes a solvent blank consisting of the formulation without a test compound in addition to the untreated control.
(§5) Assay fungi include the plant pathogens, Pythium ultimum (Pyth) and Rhizoctonia solani (Rhiz).
(§6) When more than one test is run the data are averaged.

Assay [6] concerns Plasmopara viticola. Kind of assay: In vivo fungicidal activity, Grape Downy Mildew (GDM). The note with it: rate 400 ppm, rating, averaged. As to the method:
as §1, §2, §3

For assay [7], the system named is Spodoptera eridania, 3rd instar larvae, southern armyworm. Kind of assay: Southern armyworm 3rd instar test, dipped limabean leaf. Also noted: key: 0: no effect; 10-25% kill; 26-35% kill; 36-45% kill; 46-55% kill; 56-65% kill; 66-75% kill; 76-85% kill; 86-99% kill; 9: 100% kill. The note with it: for ARMYWORM Day 3: rating at 3 days; for ARMYWORM Day 5: rating at 5 days. The assay is classed as in vivo. The method in brief:
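Compound dissolved in 35% acetone/water at 10,000 ppm stock, diluted with water. Sieva limabean leaves dipped 3 s, dried, and exposed to ten 3rd instar larvae on damp filter paper. Mortality, reduced feeding and molting interference scored at 3 and 5 days on a rating scale.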

Assay [8] has as its system Rhizoctonia solani. In words: In vitro fungicidal activity, mycelial growth inhibition on agar (Rhiz). The note with it: 48 h, two days. Type of assay: cell-based. The method, then: as §4, §5, §6
Assay [9] has as its system Erysiphe graminis, tritici. In words: In vivo fungicidal activity, Wheat Powdery Mildew (WPM). Particulars: rate 400 ppm, rating, averaged. The method, then: as §1, §2, §3
Assay [10] deals with Tetranychus urticae (OP-resistant strain), 2-spotted spider mite. Kind of assay: 2-spotted spider mite test, dipped infested limabean plants. The assay is classed as in vivo. The arrangement: key: 0: no effect; 10-25% kill; 26-35% kill; 36-45% kill; 46-55% kill; 56-65% kill; 66-75% kill; 76-85% kill; 86-99% kill; 9: 100% kill. The method in brief:
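Mite-infested Sieva limabean plants (OP-resistant strain, ~100 mites per leaf, transferred ~2 h earlier) dipped 3 s with agitation in compound solution (10,000 ppm stock in 35% acetone/water, diluted with water). Mortality counted at 2 days; egg and nymph mortality assessed at 5 days; rated on a scale.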

For assay [11], the system named is Aphis fabae, mixed instar, bean aphid. In words: Bean aphid spray test on nasturtium. The assay is classed as in vivo. The arrangement: key: 0: no effect; 10-25% kill; 26-35% kill; 36-45% kill; 46-55% kill; 56-65% kill; 66-75% kill; 76-85% kill; 86-99% kill; 9: 100% kill. Particulars: 100 ppm. In outline:
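Compound dissolved at 10,000 ppm in 35% acetone/water, then water-diluted. Nasturtium plants (~5 cm) infested with 100-200 aphids one day before spraying to full coverage on a turntable; mortality estimated after 2 days on a rating scale.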

Setting [12] is: 300 ppm, adult mites, rating scale 0-9.
The mark [13] stands for this setting: 300 ppm, mite eggs, rating scale 0-9.
[14] abbreviates: 300 ppm, mite nymphs, rating scale 0-9.
[15] abbreviates: 10 ppm, mortality rating after 2 days.
Setting [16] is: spray, mortality rating after 2 days.

`N#Cc1c(Br)c(Br)n(CSc2ccccc2)c1-c1ccc(C(F)(F)F)cc1` [Example 45, 4,5-dibromo-1-[(phenylthio)methyl]-2-(alpha, alpha,alpha-trifluoro-p-tolyl)pyrrole-3-carbonitrile]: in assay [1], the “Disease Control WLR” value was 6.0. Further, the “TOBACCO BUDWORM 3rd Instar” value in [2] (100 ppm) and in assay [2] (1000 ppm) was 0 throughout. In addition, the “Disease Control SBC” value in assay [3] (rate 25 ppm) stood at 6.0; in [3] (rate 100 ppm), 7.0; in assay [3] (rate 400 ppm) it was 7.5. The “Disease Control AS” value in assay [4] was 0 (0). In addition, the inhibition at 1 ppm in assay [5] (rate 1 ppm in agar) and in [8] (rate 1 ppm in agar) was 0% in each case. The inhibition at 10 ppm in assay [5] (rate 10 ppm in agar) is 7%; in assay [8] (rate 10 ppm in agar) it was 3.5%. The inhibition at 25 ppm in assay [5] (rate 25 ppm in agar) was found to be 4.5%; in [8] (rate 25 ppm in agar), 2%. The “Disease Control GDM” value in [6] is given as 0 (0). The results for the “ARMYWORM Day 3” value in assay [7] (100 ppm) and in [7] (1000 ppm) were 0 and 8 (86-99% kill), respectively. Also, the “ARMYWORM Day 5” value was 0 in assay [7] (100 ppm) and 8 (86-99% kill) in assay [7] (1000 ppm). The “Disease Control WPM” value in assay [9] was determined as 1.0.

As to `N=C(N)SCn1c(-c2ccc(Cl)c(Cl)c2)c(Br)c(C(F)(F)F)c1C(F)(F)F` [Example 18], the figures for the “TOBACCO BUDWORM 3rd Instar” value in assay [2] (10 ppm), in assay [2] (100 ppm) and in assay [2] (1000 ppm) were 0, 9 (100% kill) and 9 (100% kill), respectively. The “OP-RESISTANT MITES Adult” value in assay [10] (10 ppm, adult mites, rating scale 0-9) is recorded as 0; in assay [10] (100 ppm, adult mites, rating scale 0-9) it was 9 (100% kill); in [10] (setting [12]) it was 9 (100% kill). In addition, the “OP-RESISTANT MITES Egg” value in [10] (10 ppm, mite eggs, rating scale 0-9) was 0; in assay [10] (100 ppm, mite eggs, rating scale 0-9) it was 0; in assay [10] (setting [13]), 0. For the same compound, the “OP-RESISTANT MITES Nymph” value in [10] (10 ppm, mite nymphs, rating scale 0-9) amounted to 0; in [10] (100 ppm, mite nymphs, rating scale 0-9), 0; in assay [10] (setting [14]), 0. In addition, the APHIDS in [11] (rating scale 0-9) was 0. For the same compound, the “ARMYWORM Day 3” value in assay [7] (10 ppm) is 0; in [7] (100 ppm) it was 9 (100% kill); in [7] (1000 ppm), 9 (100% kill). Besides, the entries for the “ARMYWORM Day 5” value in assay [7] (10 ppm), in assay [7] (100 ppm) and in assay [7] (1000 ppm) were 0, 9 (100% kill) and 9 (100% kill), respectively.

As for `N#Cc1c(Cl)c(C(F)(F)F)n(CSC2=NCCN2)c1-c1ccc(Cl)cc1` [Example 4], the “TOBACCO BUDWORM 3rd Instar” value in assay [2] (10 ppm), in assay [2] (100 ppm) and in assay [2] (1000 ppm) was 9 (100% kill) throughout. The “OP-RESISTANT MITES Adult” value in [10] (setting [15]) is on record as 0. Also, the “OP-RESISTANT MITES Egg” value in [10] (10 ppm, rating after 5 days) is given as 0; in assay [10] (100 ppm, rating after 5 days), 0; in assay [10] (300 ppm, rating after 5 days), 9 (100% kill). In addition, the “OP-RESISTANT MITES Nymph” value in [10] (10 ppm, rating after 5 days) was 0; in assay [10] (100 ppm, rating after 5 days), 0. The compound also registered an APHIDS in [11] (setting [16]) of 0. In addition, the “ARMYWORM Day 3” value in assay [7] (10 ppm), in assay [7] (100 ppm) and in assay [7] (1000 ppm) was 9 (100% kill) in each case. Besides, the “ARMYWORM Day 5” value in [7] (10 ppm), in assay [7] (100 ppm) and in [7] (1000 ppm) was 9 (100% kill) each time.

For `N#Cc1c(Br)c(C(F)(F)F)n(CSC2=NCCS2)c1-c1ccc(Cl)cc1` [Example 16], the “TOBACCO BUDWORM 3rd Instar” value in assay [2] (10 ppm), in assay [2] (100 ppm) and in [2] (1000 ppm) was 9 (100% kill) each time. In addition, the “OP-RESISTANT MITES Adult” value in assay [10] (setting [12]) is recorded as 0. The “OP-RESISTANT MITES Egg” value in assay [10] (setting [13]) was found to be 0. Besides, the “OP-RESISTANT MITES Nymph” value in assay [10] (setting [14]) came to 0. In addition, the APHIDS in [11] (rating scale 0-9) is 8 (86-99% kill). Also, the “ARMYWORM Day 3” value in assay [7] (10 ppm), in assay [7] (100 ppm) and in assay [7] (1000 ppm) was 9 (100% kill) in each case. The “ARMYWORM Day 5” value in assay [7] (10 ppm), in assay [7] (100 ppm) and in [7] (1000 ppm) was 9 (100% kill) throughout.

Regarding `CN=C(NC)SCn1c(-c2ccc(Cl)cc2)c(C#N)c(Cl)c1C(F)(F)F` [Example 2], the “TOBACCO BUDWORM 3rd Instar” value in assay [2] (10 ppm), in assay [2] (100 ppm) and in [2] (1000 ppm) was 9 (100% kill) in each case. Besides, the “OP-RESISTANT MITES Egg” value is on record as 0 in [10] (10 ppm, rating after 5 days); 9 (100% kill) in assay [10] (100 ppm, rating after 5 days); 0 in [10] (300 ppm, rating after 5 days). The compound also returned an APHIDS in assay [11] (setting [16]) of 0. Further, the “ARMYWORM Day 3” value in assay [7] (10 ppm), in assay [7] (100 ppm) and in [7] (1000 ppm) was 9 (100% kill) in each case. The “ARMYWORM Day 5” value in assay [7] (10 ppm), in assay [7] (100 ppm) and in [7] (1000 ppm) was 9 (100% kill) in each case.

Regarding `CSCn1c(Br)c(Br)c(C#N)c1-c1ccc(C(F)(F)F)cc1` [Example 44], the “TOBACCO BUDWORM 3rd Instar” value in [2] (10 ppm) is 0; in assay [2] (100 ppm), 0; in [2] (1000 ppm) it was 9 (100% kill). For the same compound, the “OP-RESISTANT MITES Adult” value in assay [10] (setting [15]) was found to be 0. For the same compound, the “OP-RESISTANT MITES Egg” value was 0 in assay [10] (10 ppm, rating after 5 days); 7 (76-85% kill) in assay [10] (100 ppm, rating after 5 days); 0 in assay [10] (300 ppm, rating after 5 days). The “OP-RESISTANT MITES Nymph” value in assay [10] (100 ppm, rating after 5 days) came out at 0. The same compound registered an APHIDS in assay [11] (setting [16]) of 0. Besides, the “ARMYWORM Day 3” value is listed as 0 in assay [7] (10 ppm), 9 (100% kill) in assay [7] (100 ppm) and 9 (100% kill) in [7] (1000 ppm). The entries for the “ARMYWORM Day 5” value in assay [7] (10 ppm), in assay [7] (100 ppm) and in [7] (1000 ppm) were 0, 9 (100% kill) and 9 (100% kill), respectively.

The values above are taken from patent EP0545103A1, “Insecticidal, acaricidal and molluscicidal 1-(substituted) thioalkylpyrroles” (priority 1991, dated 1993).
